# Columns and labels:
# Type in all cases: cell-based
# dengue virus (DENV) = experiment: anti-dengue virus activity (EC50)
# [1] = system: drug resistant strains of Acinetobacter baumannii; experiment: anti-drug resistant strains of Acinetobacter baumannii (MIC)
# Zika virus = experiment: anti-Zika virus activity (EC50)
# Zika virus (ZIKV) = experiment: anti-Zika virus activity (inhibition rate); conditions: Zika virus; Drug concentration 11 μM
# Usutu virus (USUV) = experiment: anti-Usutu virus activity (inhibition rate); conditions: Usutu virus
# [2] = resistant strain of Acinetobacter baumannii no. 17
# [3] = resistant strain of Acinetobacter baumannii no. 18
# [4] = resistant strain of Acinetobacter baumannii no. 19
# [5] = resistant strain of Acinetobacter baumannii no. 20
smiles,measurement,setting,value
O=C1[C@@H]2CCc3ccccc3N2[C@@H](Cc2ccc([N+](=O)[O-])cc2)N1Nc1ccccc1 [ZXD-100B],EC50,dengue virus (DENV),0.85 µM
O=C1[C@@H]2CCc3ccccc3N2[C@@H](Cc2ccc(O)cc2)N1Nc1ccccc1 [ZXD-127B],EC50,dengue virus (DENV),5.2 µM
O=C1[C@@H]2CCc3ccccc3N2[C@@H](c2ccccc2)N1Nc1ccc([N+](=O)[O-])cc1 [ZXD-106],EC50,dengue virus (DENV),5.2 µM
O=C1[C@H]2CCc3ccccc3N2C(Cc2ccc([N+](=O)[O-])cc2)N1Nc1ccccc1 (some centres unmarked) [ZXD-100A],EC50,dengue virus (DENV),2 µM
O=C1C2CCc3ccccc3N2C(c2ccc(O)cc2)N1Nc1ccc([N+](=O)[O-])cc1 (centres unmarked) [ZXD-133A],EC50,dengue virus (DENV),19.5 µM
O=C1[C@@H]2CCc3ccccc3N2[C@@H](c2ccc([N+](=O)[O-])cc2)N1Nc1ccc([N+](=O)[O-])cc1 [ZXD-78A],EC50,dengue virus (DENV),0.17 µM
COc1ccc([C@H]2N(Nc3ccc([N+](=O)[O-])cc3)C(=O)[C@@H]3Cc4ccccc4N32)cc1OC [ZDL-89],EC50,dengue virus (DENV),11.6 µM
O=C1C2CCCCN2C(c2ccco2)N1c1ccc([N+](=O)[O-])cc1 (centres unmarked) [ZBJ-12A],EC50,dengue virus (DENV),1.2 µM
O=C1[C@@H]2CCc3ccccc3N2[C@@H](c2ccccc2O)N1Nc1ccccc1 [ZXD-120B],EC50,dengue virus (DENV),6.5 µM
O=C(NNc1ccc(F)cc1)[C@H]1CCNC1 [ZBM-19],MIC,[1]; [2],2 µg/mL
same,MIC,[1]; [3],2 µg/mL
same,MIC,[1]; [4],2 µg/mL
same,MIC,[1]; [5],1 µg/mL
O=C(NNc1ccccc1)[C@@H]1Cc2ccccc2CN1 [ZSD-16],MIC,[1]; [2],2 µg/mL
same,MIC,[1]; [3],8 µg/mL
same,MIC,[1]; [4],4 µg/mL
same,MIC,[1]; [5],4 µg/mL
COc1ccc([C@H]2N(Nc3ccc([N+](=O)[O-])cc3)C(=O)[C@@H]3Cc4ccccc4N32)cc1O[Si](C)(C)C(C)(C)C [ZDL-93],EC50,dengue virus (DENV),24.8 µM
O=C(NNc1ccc(F)cc1)c1ccc[nH]1 [ZBM-21],MIC,[1]; [2],0.5 µg/mL
same,MIC,[1]; [3],0.5 µg/mL
same,MIC,[1]; [4],0.5 µg/mL
same,MIC,[1]; [5],0.5 µg/mL
COc1ccc(C2c3c([nH]c4ccccc34)C(=O)N2Nc2ccc([N+](=O)[O-])cc2)cc1OC (centres unmarked) [ZFD-33A + B],EC50,Zika virus,17.2 µM
O=C(NNc1ccc(F)cc1)c1cc2ccccc2[nH]1 [ZFD-44],MIC,[1]; [2],0.5 µg/mL
same,MIC,[1]; [3],1 µg/mL
same,MIC,[1]; [4],1 µg/mL
same,MIC,[1]; [5],1 µg/mL
O=C1C2CCc3ccccc3N2C(c2ccc(Cl)cc2)N1Nc1ccccc1 (centres unmarked) [ZXD-87A],EC50,Zika virus,3.4 ± 0.38 µM
COc1cc(C2N(Nc3ccccc3)C(=O)C3CCc4ccccc4N32)ccc1O[Si](C)(C)C(C)(C)C (centres unmarked) [ZXD-142A],EC50,Zika virus,1.56 ± 0.21 µM
same,EC50,dengue virus (DENV),1.6 µM
O=C(NNc1ccccc1)C1CCc2ccccc2N1 (centres unmarked) [ZXD-44],MIC,[1]; [2],4 µg/mL
same,MIC,[1]; [3],8 µg/mL
same,MIC,[1]; [4],8 µg/mL
same,MIC,[1]; [5],2 µg/mL
same,EC50,dengue virus (DENV),1.5 µM
O=C1C2Cc3ccccc3CN2C(c2ccco2)N1Nc1ccccc1 (centres unmarked) [ZSD-28B],MIC,[1]; [2],> 64 µg/mL
same,MIC,[1]; [3],8 µg/mL
same,MIC,[1]; [4],8 µg/mL
same,MIC,[1]; [5],8 µg/mL
O=C1[C@@H]2CCc3ccccc3N2[C@@H](Cc2ccccc2)N1Nc1ccc([N+](=O)[O-])cc1 [ZXD-107A],inhibition at 11 µM,Zika virus (ZIKV),> 100%
same,inhibition at 11 µM,Usutu virus (USUV); Drug concentration 11 μM,< 0%
same,inhibition at 33 µM,Usutu virus (USUV); Drug concentration 33 μM,< 0%
same,EC50,dengue virus (DENV),0.12 µM
C=C(C)c1ccc(C2N(Nc3ccccc3)C(=O)C3CCc4ccccc4N32)cc1 (centres unmarked) [ZXD-89A],EC50,dengue virus (DENV),0.74 µM
O=C(NNc1ccc([N+](=O)[O-])cc1)C1CCc2ccccc2N1 (centres unmarked) [ZXD-45],EC50,dengue virus (DENV),0.31 µM
Nc1ccc(NNC(=O)[C@@H]2Cc3ccccc3N2)cc1 [ZBM-8],MIC,[1]; [2],2 µg/mL
same,MIC,[1]; [3],4 µg/mL
same,MIC,[1]; [4],2 µg/mL
same,MIC,[1]; [5],4 µg/mL
CC(C)(C)[Si](C)(C)Oc1ccc(C2N(Nc3ccc([N+](=O)[O-])cc3)C(=O)C3CCc4ccccc4N32)cc1 (centres unmarked) [ZXD-132A],EC50,dengue virus (DENV),0.64 µM

# Reference: patent US20220235057A1, “CYCLIC FORMYL AND CYCLIC KETONE COMPOUNDS, PREPARATION METHOD THEREFOR, AND PHARMACEUTICAL USE” (priority 2019, published 2022)
